Data: patent US7087623B2, “Thiazole and other heterocyclic ligands for mammalian dopamine, muscarinic and serotonin receptors and transporters, and methods of use thereof” (Sepracor Inc., priority 2001, dated 2006)
Where two headings read alike, the source gives them in different places.

Experiments:
[1] = biological target: T1, human muscarinic M3 receptor (Homo sapiens, UniProt P20309); experiment: Binding to human muscarinic M3 receptors ([3H]N-methylscopolamine)
T1 construct: expressed in transfected cells; host or cells: BSR-M3H
Procedure: (§1) This assay measures binding of [^3H]N-methylscopolamine to human muscarinic M3 receptors. BSR-M3H cells transfected with a plasmid encoding the human muscarinic M3 receptor were used to prepare membranes in modified Tris-HCl pH 7.4 buffer using standard techniques. A 5 μg aliquot of membrane was incubated with 0.29 nM [^3H]N-methylscopolamine for 60 minutes at 25° C. Non-specific binding was estimated in the presence of 1 μM atropine. Membranes were filtered and washed 3 times and the filters were counted to determine [^3H]N-methylscopolamine specifically bound. See Buckley, N. J., Bonner, T. I., Buckley, C. M. and Brann, M. R. Antagonist binding properties of five cloned muscarinic receptors expressed in CHO-K1 cells. Mol. Pharmacol. 35: 469–476, 1989.
(§2) The human 5-HT2a and 5-HT2b screens were conducted according to Bonhaus, D. W. et al. Br. J. Pharmacol. 1995, 115, 622. The human […], W. A. et al. J. Neurochem. 1997, 69, 1449. The human 5-HT6 screen was conducted according to Monsama, F. J. et al. Mol. Pharmacol. 1993, 43, 320. The assay to human D3 receptors was conducted according to Sokoloff, P. et al. Nature 1990, 347;146. The human dopamine transporter assay was conducted according to Gu, H. et. al. J. Biol. Chem. 1994, 269 (10);7124; and Giros, B. et al. Trends. Pharmacol. Sci. 1993, 14: 43. The human muscarinic M1–M4 screens were conducted according to Buckley N. J. et al. Mol. Pharmacol. 1989, 35:469.
(§3) The human dopamine transporter assay was conducted according to Gu, H. et. al. J. Biol. Chem. 1994, 269 (10);7124 and Giros, B. et al. Trends. Pharmacol. Sci. 1993, 14: 43. The human muscarinic M1–M4 screens were conducted according to Buckley N. J. et al. Mol. Pharmacol. 199, 35:469

[2] = biological target: T2, human muscarinic M1 receptor (Homo sapiens, UniProt P11229); experiment: Binding to human muscarinic M1 receptors ([3H]N-methylscopolamine)
T2 construct: expressed in transfected cells; host or cells: BSR-M1H
T2 sequence (P11229 1-460): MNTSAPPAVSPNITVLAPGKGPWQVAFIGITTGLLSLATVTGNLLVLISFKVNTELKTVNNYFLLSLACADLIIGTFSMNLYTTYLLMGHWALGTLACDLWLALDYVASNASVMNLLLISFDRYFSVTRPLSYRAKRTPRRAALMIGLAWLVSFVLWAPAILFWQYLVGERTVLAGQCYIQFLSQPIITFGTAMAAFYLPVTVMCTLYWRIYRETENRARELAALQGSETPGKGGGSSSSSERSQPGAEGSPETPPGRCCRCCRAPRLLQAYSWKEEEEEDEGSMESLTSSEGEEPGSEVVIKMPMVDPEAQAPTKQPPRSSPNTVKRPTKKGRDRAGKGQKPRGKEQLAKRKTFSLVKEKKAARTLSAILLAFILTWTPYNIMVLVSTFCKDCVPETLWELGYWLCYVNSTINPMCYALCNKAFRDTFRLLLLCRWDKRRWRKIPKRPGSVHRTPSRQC
Procedure: as §1, with “muscarinic M1” for “muscarinic M3”, “receptors. BSR-M1H” for “receptors. BSR-M3H”, “A 25” for “A 5”, “469–476, 1989; Luthin, G. R. and Wolfe, B. B. Comparison of [^3H]pirenzepine and [^3H]quinuclidinylbenzilate binding to muscarine cholinergic receptors in rat brain. J. Pharmacol. Exp. Ther. 228: 648–665, 1984; and Watson, M., Yamamura, H. I. and Roeske, W. R. A unique regulatory profile and regional distribution of [^3H]pirenzepine binding in the rat provide evidence for distinct M1 and M2 muscarinic receptor subtypes. Life. Sci. 32: 3001–3011, 1983.” for “469–476, 1989.”
as §2, §3

[3] = biological target: T3, human serotonin 5-HT6 receptor (Homo sapiens, UniProt P50406); experiment: Radioligand binding assay, human 5-HT6 receptors ([3H]LSD)
T3 construct: expressed in transfected cells; host or cells: HeLa/E6-7
Procedure, shortened: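 Membranes from HeLa/E6–7 cells stably expressing human 5-HT6, in modified Tris-HCl pH 7.4, incubated (30 μg) with 1.5 nM [3H]LSD for 120 min at 37° C. Non-specific binding defined with 5 μM 5-HT; bound ligand measured by filtration and counting.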

Wistar rats = experiment: Acute toxicity assessment (maximum tolerated dose) in Wistar rats, i.v.; type: in vivo; settings: observed 72 hours
Procedure: An in vivo evaluation was carried out to determine the maximum tolerated dose of certain compounds in Wistar rats (male and female weighing ˜[…]). The compounds were administered i.v. and the animals were then observed for 72 hours. Compounds 37, 93, and 112 were solubilized in 5% dextrose (w/v)/polyethylene glycol 400 (4:1 v/v).

[4] = human, Example 100 table, read-out: IC50 (nM) M3
[5] = human, Example 100 table, read-out: IC50 (nM) M1
[6] = human, Example 100 table, read-out: IC50 (nM) 5-HT6
[7] = human, Example 101 table, read-out: IC50 (nM) M3
[8] = human, Example 101 table, read-out: IC50 (nM) M1
[9] = human 5-HT6, Example 16 table, read-out: IC50 (nM) 5-HT6

T3 sequence (P50406 whole entry): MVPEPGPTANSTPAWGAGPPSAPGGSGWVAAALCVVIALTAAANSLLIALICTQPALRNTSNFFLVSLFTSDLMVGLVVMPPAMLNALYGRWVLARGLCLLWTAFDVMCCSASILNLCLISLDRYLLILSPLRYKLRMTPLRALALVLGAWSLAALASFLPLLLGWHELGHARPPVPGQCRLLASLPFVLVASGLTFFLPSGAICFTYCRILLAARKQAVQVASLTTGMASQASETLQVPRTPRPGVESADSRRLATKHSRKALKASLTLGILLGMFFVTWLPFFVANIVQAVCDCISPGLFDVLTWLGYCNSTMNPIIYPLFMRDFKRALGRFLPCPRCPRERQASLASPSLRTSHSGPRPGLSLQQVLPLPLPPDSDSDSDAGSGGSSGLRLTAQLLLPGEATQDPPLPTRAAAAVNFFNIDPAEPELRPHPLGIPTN
T1 sequence (P20309 whole entry): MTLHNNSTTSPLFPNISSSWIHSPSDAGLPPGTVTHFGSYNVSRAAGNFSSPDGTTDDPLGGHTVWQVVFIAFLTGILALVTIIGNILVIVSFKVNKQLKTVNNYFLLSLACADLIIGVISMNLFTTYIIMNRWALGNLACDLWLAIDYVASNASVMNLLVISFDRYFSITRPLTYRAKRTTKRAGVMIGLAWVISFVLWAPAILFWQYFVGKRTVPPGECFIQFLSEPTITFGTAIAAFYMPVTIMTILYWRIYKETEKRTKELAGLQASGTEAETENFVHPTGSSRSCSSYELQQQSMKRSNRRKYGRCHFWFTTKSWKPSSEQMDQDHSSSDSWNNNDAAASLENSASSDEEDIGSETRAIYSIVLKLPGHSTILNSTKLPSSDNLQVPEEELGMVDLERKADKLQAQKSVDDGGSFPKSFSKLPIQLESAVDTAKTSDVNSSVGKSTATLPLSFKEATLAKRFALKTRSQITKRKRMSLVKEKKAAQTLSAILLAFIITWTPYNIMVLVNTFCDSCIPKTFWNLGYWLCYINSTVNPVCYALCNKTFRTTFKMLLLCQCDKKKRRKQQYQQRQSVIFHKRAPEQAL

IC50 [1, 4] [nM] | IC50 [2, 5] [nM] | IC50 [3, 6] [nM] | SMILES | IC50 [1, 7] [nM] | IC50 [2, 8] [nM] | IC50 [3, 9] [nM] | further results
< 1000 | < 1000 | < 100 | CN1CCCC1CCNc1nc(C2(c3ccccc3F)CCCCC2)cs1 (racemic) [Compound 128, {4-[1-(2-fluorophenyl)-cyclohexyl]-thiazol-2-yl}-[2-(1-methyl-pyrrolidin-2-yl)-ethyl]-amine] |  |  |  | 
< 1000 | > 1000 | < 100 | CN1CCCC1CCNc1nc(C2(c3ccccc3F)CCCCC2)cs1 (single isomer, unassigned) [Compound 130, {4-[1-(2-fluorophenyl)-cyclohexyl]-thiazol-2-yl}-[2-(1-methyl-pyrrolidin-2-yl)-ethyl]-amine] |  |  |  | 
 |  |  | CN1CCN(c2nc(C3(c4csc5ccc(Cl)cc45)CCOCC3)cs2)CC1 [Compound 36] | > 1000 | > 1000 | < 100 | 
 |  |  | Clc1ccc(C2(c3csc(N4CCNCC4)n3)CCOCC2)cc1 [Compound 37] | < 500 | < 500 | < 100 | Tolerability and mortality after 72 h (Wistar rats; 60 mg/kg i.v.): well tolerated by the animals and did not cause any mortality
 |  |  | CN1CCN(c2nc(C3(c4ccccc4)CCOCC3)cs2)CC1 [Compound 59] |  |  |  | IC50 [1]: > 1000 nM; IC50 [2]: > 1000 nM; IC50 ([3]; IC50 (nM) 5-HT6, human 5-HT6, Example 16 table): < 100 nM
 |  |  | CN1CCN(c2nc(C3(c4cccc(Cl)c4)CCOCC3)cs2)CC1 [Compound 63] | > 1000 | > 1000 | < 100 | 
 |  |  | CN1CCN(c2nc(C3(c4ccccc4F)CCCCC3)cs2)CC1 [Compound 83] | < 500 | < 500 | < 100 | 
 |  |  | CN1CCN(c2nc(C3(c4ccccc4F)CCCC3)cs2)CC1 [Compound 93] | < 100 | < 500 | < 100 | Tolerability and mortality after 72 h (Wistar rats; 60 mg/kg i.v.): well tolerated by the animals and did not cause any mortality

SMILES | IC50 [1, 4] [nM] | IC50 [2, 5] [nM] | IC50 [3, 6] [nM] | IC50 [1, 7] [nM] | IC50 [2, 8] [nM] | IC50 [3, 9] [nM] | further results
CN1CCN(c2nc(C3(c4ccccc4F)CCOCC3)cs2)CC1 [Compound 112] | > 1000 | < 1000 | < 100 |  |  |  | Tolerability and mortality after 72 h (Wistar rats; 30 mg/kg i.v.): well tolerated by the animals and did not cause any mortality
